Test results as given in patent US20160193240A1, “Ulmoside-A: Useful For Prevention Or Cure Of Metabolic Diseases” (COUNCIL OF SCIENTIFIC & INDUSTRIAL RESEARCH, priority 2013, published 2016).

Tests used:
AdipoRs = experiment: Competitive radio-ligand binding assay with 125I-adiponectin on C2C12 myotubes; design: species or system mouse; settings: 10^-11 M to 10^-6 M unlabeled ULMA, 12 hours, 4° C.
Method: C. ULMA competes with ^125I-globular adiponectin (gAd) for binding to AdipoRs. C2C12 myotubes in 12 well plates were incubated with 2 μl of 10 uCi/ml ^125I-adiponectin (this amount gives 50% binding to the cells) in ice-cold PBS and 0.1% bovine serum albumin for 12 h in presence or absence of different doses of unlabeled ULMA (10^−11M, 10^−10 M, 10^−9 M, 10^−8 M, 10^−7M, 10^−6M) at 4° C. The cells were then washed 20 times in PBS and then lysed. 5 μl of the lysate was used for protein estimation using standard Bradford assay and rest of the lysate was used for measuring radioactivity in a gamma-counter (Cole Palmer). The count per minute was normalized with protein concentration and plotted as % binding compared to wells treated with vehicle only (0.1% vol/vol DMSO). Data represents mean±SEM from three experiments performed in triplicates.
Competitive Radio-Ligand Binding Assay
Further validation of AdipoR-ULMA interaction was obtained using a competitive radio-ligand binding assay. […] 5 μl of the lysate was used for protein estimation using standard Bradford assay and rest of the lysate was used for measuring radioactivity in a gamma-counter (Cole Palmer). […]

GAL-PPARα = experiment: PPARα activation assay (GAL-PPARα / GAL4-Luc reporter) in HEK293 cells expressing endogenous AdipoR1; format: cell-based, human
Method: A. ULMA enhances PPARα ligand activity; HEK293 cells were seeded on to 24 well plates and after 24 h, transfected with 100 ng of GAL-PPARα and 100 ng GAL4-Luc along with 100 ng eGFPC1 (Clontech) plasmids using lipofectamine LTX (Invitrogen) according to manufacturer's instructions. 24 h after transfection, cells were treated with or without 100 pM GW-7647 alone or in combination with 100 nM ULMA or 1 μg/ml globular adiponectin (gAd) for 6 h. Following which, the cells were lysed and GFP fluorescence and firefly luciferase activities were measured. Luciferase activity was normalized with GFP fluorescence and plotted as fold activity over vehicle (0.1% DMSO) treated control. Data shown in mean±SEM of three independent experiments performed in duplicates. *p<0.05 as determined by two tailed unpaired student's t-test.
The potential of ULMA to activate adiponectin receptor signaling was evaluated using a PPARα activation assay. […] 24 hours following plating, these cells were transfected with 100 ng of GAL-PPARα (PPARα cDNA fused with GAL4 DNA binding domain) and 100 ng GAL4 upstream activation sequence driven luciferase (GAL4-Luc) reporter gene that is capable of binding to any protein fused to GAL4-DNA binding domain (in this case GAL-PPARα) and 100 ng Green fluorescence expressing plasmid (GFP) that was used as an internal control, using lipofectamine LTX transfection reagent (Invitrogen) according to manufacturers' instructions. […] The cells were then lysed and luciferase activity was measured in a Promega GloMax luminometer using steady Glo luciferase assay kit (Promega) according to manufacturers' instructions; and GFP fluorescence was measured in a fluorimeter (Polarstar Galaxy, BMG Labtech). […]

Which “displacement of 125I-adiponectin binding by cold ULMA” value (AdipoRs) does the source give for `O=C1c2c(cc(O)c([C@@H]3O[C@H](CO)[C@@H](O)[C@H](O)[C@H]3O)c2O)O[C@@H](c2ccc(O)c(O)c2)[C@@H]1O` [ULMA, (2S,3S)-(+)-3′,4′,5,7-tetrahydroxydihydroflavonol-6-C-β-D-glucopyranoside] here?
Its value is “dose-dependently replaced 125I-adiponectin binding”.

What about the “potency in enhancing PPARα ligand activity, comparison” value (GAL-PPARα; 100 nM ULMA vs 1 μg/ml globular adiponectin, with 100 pM GW-7647) of the same compound?
The value was “more potent than globular adiponectin”.

And the “enhancement of GW-7647 induced luciferase activity (PPARα ligand activity)” value (GAL-PPARα; co-treatment with 100 pM GW-7647, 100 nM ULMA or 1 μg/ml globular adiponectin, 6 hours)?
Its value is “further enhanced”.
